In publication PMC2962730 (Journal of neurochemistry, 2010):
Residue numbers refer to the chain shown, from its start.

Experiments:
hVAChT M320A = biological target: T1, hVAChT M320A (Homo sapiens, UniProt Q16572, M320A); assay: [3H]vesamicol saturation binding; conditions: pH 7.4
T1 sequence (Q16572 1-532 M320A): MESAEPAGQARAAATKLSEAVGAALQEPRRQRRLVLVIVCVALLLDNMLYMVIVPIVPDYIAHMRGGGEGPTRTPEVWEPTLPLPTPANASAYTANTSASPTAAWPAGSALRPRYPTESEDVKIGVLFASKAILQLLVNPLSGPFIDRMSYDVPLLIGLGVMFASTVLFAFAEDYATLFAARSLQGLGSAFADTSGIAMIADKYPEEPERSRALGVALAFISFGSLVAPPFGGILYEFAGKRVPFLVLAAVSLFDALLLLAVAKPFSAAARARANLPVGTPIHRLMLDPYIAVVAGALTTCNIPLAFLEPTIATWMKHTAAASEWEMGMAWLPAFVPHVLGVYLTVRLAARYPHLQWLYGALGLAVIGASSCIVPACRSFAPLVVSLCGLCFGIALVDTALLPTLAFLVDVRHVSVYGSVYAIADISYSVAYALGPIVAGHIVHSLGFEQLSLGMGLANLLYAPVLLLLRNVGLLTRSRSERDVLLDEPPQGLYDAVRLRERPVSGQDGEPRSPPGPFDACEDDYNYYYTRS

hVAChT A330V = biological target: T2, hVAChT A330V (Homo sapiens, UniProt Q16572, A330V); assay: [3H]vesamicol saturation binding; conditions: pH 7.4
T2 sequence (Q16572 1-532 A330V): T1 sequence (Q16572 1-532 M320A) with A320M, A330V

hVAChT W331A [1] = biological target: T3, hVAChT W331A (Homo sapiens, UniProt Q16572, W331A); assay: [3H]vesamicol saturation binding; conditions: pH 7.4
T3 sequence (Q16572 1-532 W331A): T1 sequence (Q16572 1-532 M320A) with A320M, W331A

hVAChT F231A = biological target: T4, hVAChT F231A (Homo sapiens, UniProt Q16572, F231A); assay: ACh equilibrium binding by competition against [3H]vesamicol
T4 sequence (Q16572 1-532 F231A): T1 sequence (Q16572 1-532 M320A) with F231A, A320M

hVAChT W331A [2] = biological target: T3, hVAChT W331A; assay: as above
hVAChT C388A = biological target: T5, hVAChT C388A (Homo sapiens, UniProt Q16572, C388A); assay: [3H]ACh transport; format: biochemical
T5 sequence (Q16572 1-532 C388A): T1 sequence (Q16572 1-532 M320A) with A320M, C388A

VAChT C391Y = conditions: ref Zhu et al. (2001); cited from earlier work

**Q.** Which results are given for O[C@@H]1CCCC[C@H]1N1CCC(c2ccccc2)CC1 (racemic) [vesamicol, ( )-trans-2-(4-phenylpiperidino)cyclohexanol]?
**A.** Bmax, maximal specific [3H]vesamicol binding (VAChT expression level) (hVAChT M320A): 62 ± 5 pmol/mg; Bmax, maximal specific [3H]vesamicol binding (VAChT expression level) (hVAChT A330V): 21 ± 0 pmol/mg; Bmax, maximal specific [3H]vesamicol binding (VAChT expression level) (hVAChT W331A [1]): 37 ± 2 pmol/mg

**Q.** For CC(=O)OCC[N+](C)(C)C [ACh, acetylcholine], which Kd (hVAChT F231A) is on record?
**A.** The Kd was 5.8 ± 1.2 mM.

**Q.** And the “FHA, fraction of the ACh sites that have high affinity” value (hVAChT F231A; F231A hVAChT, pH 7.4)?
**A.** Its value is 0.67 ± 0.05.

**Q.** And the “ACh bound more weakly than by wild-type” value (hVAChT W331A [2]; W331A hVAChT vs wild-type)?
**A.** Its value is 11 fold.

**Q.** And the “FHA, fraction of the ACh sites that have high affinity” value (hVAChT W331A [2]; W331A hVAChT, pH 7.4, monophasic fit, FHA fixed to 1)?
**A.** The value was 1.0.

**Q.** What about the “Vmax/Bmax, ACh transport normalized to Bmax” value (hVAChT C388A; pH 7.4) of the same compound?
**A.** The value was 12 ± 1 min⁻¹.

**Q.** And the Km (hVAChT C388A; read-out: KM, Michaelis-Menten constant for ACh transport, pH 7.4)?
**A.** The Km was 2300 ± 500 µM.

**Q.** And the “higher KM value for transport” value (VAChT C391Y)?
**A.** The value was 2.6 fold.
